For one test, the system named is SW403 cells. The test can be described thus: SW403 cell viability, MTT assay. Format: cell-based, human. To be noted: sub-chronic treatment 72 hrs; compounds 30 μM, 5FU 300 nM. The protocol:
Cells were seeded in 12- or 96-well plates in complete medium 24 hrs before treatment and then incubated for 24 hrs (single treatment) or 72 hrs (multiple treatments) with different drug concentrations in media without serum. Cell viability was then evaluated.
Alternatively, cell viability was assessed measuring mitochondrial functionality by the MIT assay, which is based on the reduction of the soluble tetrazolium salt MTT [(3-(4,5-dimethylthiazol-2-yl)-2,5-diphenyltetrazolium bromide] into insoluble formazan by mitochondria. Briefly, after treatment, cells were washed with PBS and incubated with 0.5 mg/ml, MTT for 2 hrs at room temperature, MTT reduction was quantified by absorbance at 570 nm using a UV-visible plate reader.

For test [1], the target named is rat acid ceramidase (rAC) (Rattus norvegicus (Rat), UniProt Q6P7S1). The test can be described thus: Rat acid ceramidase (rAC) enzymatic assay, LC/MS of lauric acid. The conditions noted are these: for IC50: rat acid ceramidase, 100 μM N-lauroyl ceramide, pH 4.5. Format: biochemical. The method, then: A lysosomal rat acid ceramidase (rAC) protein preparation was obtained from cells stably expressing rAC resuspended in 20 mM Tris HCl (pH 7.5) with 0.32 M sucrose. Samples were sonicated and centrifuged at 800×g for 15 min at 4° C. Supernatants were then centrifuged at 12,000×g for 30 min at 4° C. Pellets were re-suspended in PBS pH 7.4 and subjected to 2 freeze-thaw cycles at −80° C. The suspension was finally centrifuged at 105,000×g for 1 hr at 4° C. and the supernatant containing rAC was then used in the enzymatic assay.
Chain of rat acid ceramidase (rAC) (Q6P7S1 142-394): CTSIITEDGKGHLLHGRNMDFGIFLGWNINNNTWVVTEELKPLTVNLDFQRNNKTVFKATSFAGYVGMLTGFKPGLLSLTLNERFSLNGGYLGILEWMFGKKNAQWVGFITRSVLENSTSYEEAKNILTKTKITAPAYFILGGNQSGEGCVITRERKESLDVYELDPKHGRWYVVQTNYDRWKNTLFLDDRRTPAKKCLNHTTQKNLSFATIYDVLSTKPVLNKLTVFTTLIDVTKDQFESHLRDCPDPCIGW
Chain of rat acid ceramidase (rAC) (Q6P7S1 21-141): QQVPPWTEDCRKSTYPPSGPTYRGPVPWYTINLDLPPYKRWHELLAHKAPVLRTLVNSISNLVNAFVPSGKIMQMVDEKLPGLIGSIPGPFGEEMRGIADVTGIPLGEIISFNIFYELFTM
r-AC protein samples were pre-incubated with various concentrations of test compounds or vehicle control in 100 mM NaH2PO4/citrate buffer pH 4.5, 0.1% Nonidet P-40, 3 mM DTT for 30 min at 37° C. Samples were incubated with 100 μM N-lauroyl ceramide (Nu-Chek Prep, Elysian, Minn.) at 37° for 30 min. The reaction was stopped by addition of a mixture of chloroform/methanol (2:1 vol/vol) containing 1 nmol of heptadecanoic acid (HDA; NuChek Prep). The organic phases were collected, dried under nitrogen, and analyzed by LC/MS in the negative-ion mode using heptadecanoic acid (HDA) as internal standard (m/z=199 for lauric acid, m/z=269 for HDA). HDA was eluted on an XDB Eclipse C18 column isocratically at 2.2 mL/min for 1 min with a solvent mixture of 95% methanol and 5% water, both containing 0.25% acetic acid, and 5 mM ammonium acetate. The column temperature was 50° C. Electrospray ionization (ESI) was in the negative mode, capillary voltage was 4 kV, and fragmentor voltage was 100 V. Nitrogen was used as drying gas at a flow rate of 13 L/min and at a temperature of 350° C. Nebulizer pressure was set at 60 psi. We monitored [M-H]− in the selected-ion monitoring (SIM) mode using HDA as internal standard.
Inhibition of rAC activity was calculated as a reduction of lauric acid in the samples compared to vehicle controls. Median inhibitory concentration (IC50) values were calculated by non-linear regression analysis of log [concentration]/inhibition curves using. GraphPad Prism 5 (GraphPad Software, Inc., CA, USA) applying a standard slope curve fitting.

Test [2] concerns the target human acid ceramidase (hAC) (Homo sapiens (Human), UniProt Q13510). The test can be described thus: Human acid ceramidase (hAC) activity assay, UPLC/MS of lauric acid. The conditions noted are these: for IC50: human acid ceramidase, 50 μM N-lauroyl ceramide, pH 4.5. The class given is biochemical. The protocol:
Human acid ceramidase (hAC) cDNA was purchased from Open Biosystem (clone ID 3923451) and subcloned in the mammalian expression vector pCDNA3.1, containing the neomycin resistance gene. The cell line HEK293 was transfected with hAC-pCDNA3.1 construct using JetPEI reagent (Polypus Transfection™, Illkirch, FR) following the manufacturer instructions. A stable cell line of hAC-overexpressing HEK293 was generated by selection with G418 (1 mg/ml) and cell clones were derived by limited dilution plating. hAC-expressing clones were analyzed by western blot.
Hek293 cells overexpressing hAC were suspended in 20 mM Tris HCl (pH 7.5) containing 0.32M sucrose, sonicated and centrifuged at 800×g for 15 min at 4° C. The supernatants were centrifuged again at 12,000×g for 30 min at 4° C. The pellets were suspended in phosphate-buffered saline (PBS) and subjected to 2 freeze-thaw cycles at −80° C. The suspensions were centrifuged at 105,000×g for 1 h at 4° C. The supernatants containing hAC were kept at −80° C. until use. Protein concentration was measured using the bicinchoninic acid (BCA) assay (Pierce).
A hAC protein preparation (10 μg) was preincubated with inhibitors (final DMSO concentration 1%) in assay buffer (100 mM sodium phosphate, 0.1% Nonidet P-40, 150 mM NaCl, 3 mM DTT, 100 mM sodium citrate, pH 4.5) for 30 min at 37° C. Reactions were started by the addition of 50 μM N-lauroyl ceramide (Nu-Chek Prep, Elysian, Minn.) and carried on for 30 min at 37° C. Reactions were stopped by addition of a mixture of chloroform/methanol (2:1, vol/vol) containing 1 nmol 11-lauroleic acid (NuChek Prep). The organic phases were collected, dried under nitrogen and analyzed by UPLC/MS (Acquity, Waters) in the negative-ion mode monitoring the reaction product (lauric acid, m/z=199) using 11-lauroleic acid as internal standard.
Lipids were eluted on an Acquity UPLC BEH C18 column (50 mm length, 2.1 mm i.d., 1.7 μm pore size, Waters) column at 0.5 mL-min^−1 for 1.5 min with a gradient of acetonitrile (CH3CN) and water, both containing 0.25% acetic acid and 5 mM ammonium acetate (70% to 100% CH3CN in 0.5 min, 100% CH3CN for 0.5 min, 70% CH3CN for 0.4 min). The column temperature was 40° C. Electrospray ionization (ESI) was in the negative mode, capillary voltage was 1 kV and cone voltage was 50 V. Nitrogen was used as drying gas at a flow rate of 500 L/h and at a temperature of 400° C.
The [M-H]^− ion was monitored in the selected-ion monitoring mode (m/z values: lauric acid 199, 11-lauroleic acid […]). Calibration curves were generated with authentic lauric acid (Nu Check Prep). Inhibition of acid ceramidase activity was calculated as reduction of lauric acid in the samples compared to vehicle controls. IC50 values were calculated by non-linear regression analysis of log [concentration]/inhibition curves using GraphPad Prism 5 (GraphPad Software Inc., CA, USA) applying a standard slope curve fitting.

Where [3] appears, read: read-out: hAC percent inhibition.

This note sets out measurements from US9428465B2, “Acid ceramidase inhibitors and their use as medicaments” (FONDAZIONE ISTITUTO ITALIANO DI TECHNOLOGIA, priority 2012, dated 2016).

Each structure is given as a SMILES string.

Chain of human acid ceramidase (hAC) (Q13510 143-395): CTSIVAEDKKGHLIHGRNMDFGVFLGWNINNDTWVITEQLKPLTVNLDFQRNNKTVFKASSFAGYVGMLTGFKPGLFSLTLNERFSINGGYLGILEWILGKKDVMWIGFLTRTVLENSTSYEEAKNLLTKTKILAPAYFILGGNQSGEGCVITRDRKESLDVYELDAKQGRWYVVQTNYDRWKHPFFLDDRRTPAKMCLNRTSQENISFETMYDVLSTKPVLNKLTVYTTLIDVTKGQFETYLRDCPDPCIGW
Chain of human acid ceramidase (hAC) (Q13510 22-142): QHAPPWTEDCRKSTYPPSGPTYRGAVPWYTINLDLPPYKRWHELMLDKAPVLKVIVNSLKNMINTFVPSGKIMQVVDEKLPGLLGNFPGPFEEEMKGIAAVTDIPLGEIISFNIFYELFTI

For `O=c1[nH]cc(F)c(=O)[nH]1` [5-fluorouracil, reference compound], in the test on SW403 cells, the “SW403 cell viability (MTT assay)” value was “reduced cell viability”.
For `O=C(NCCCCc1ccccc1)n1ccc(=O)[nH]c1=O` [Example 1, 2,4-dioxo-N-(4-phenylbutyl)pyrimidine-1-carboxamide], the inhibition at 0.3 µM in test [1] (at 0.3 μM, read-out: rAC percent inhibition) turned out to be 65%.
Take `CCCCCCNC(=O)n1cc(Cl)c(=O)[nH]c1=O` [Example 3, 5-Chloro-N-hexyl-2,4-dioxo-pyrimidine-1-carboxamide]: the IC50 in test [1] was found to be 67 nM.
Still for that read-out and setting: as for `CCCCCCNC(=O)n1cc(CO)c(=O)[nH]c1=O` [Example 7, N-hexyl-5-(hydroxymethyl)-2,4-dioxo-pyrimidine-1-carboxamide], the figure is 420 nM; as for `CCCCCCNC(=O)n1cc(I)c(=O)[nH]c1=O` [Example 8, N-hexyl-5-iodo-2,4-dioxo-pyrimidine-1-carboxamide], 147 nM.
In test [1], `CCCCCCNC(=O)n1cc(OC)c(=O)[nH]c1=O` [Example 9, N-hexyl-5-methoxy-2,4-dioxo-pyrimidine-1-carboxamide] yielded an IC50 of 1100 nM.
The same measure, in the same setting: under `CCCCCCNC(=O)n1cc(N(C)Cc2ccccc2)c(=O)[nH]c1=O` [Example 10, 5-(benzyl(methyl)amino)-N-hexyl-2,4-dioxo-pyrimidine-1-carboxamide] stands 5500 nM.
For the molecule `CCCCCCNC(=O)n1cc(NC)c(=O)[nH]c1=O` [Example 11, N-hexyl-5-methylamino-2,4-dioxo-pyrimidine-1-carboxamide], the IC50 in test [1] was 3400 nM. This IC50 lies about 1.6-fold lower than the previous one.
Same read-out and setting: under `CCCCCCNC(=O)n1cc(N2CCOCC2)c(=O)[nH]c1=O` [Example 12, N-hexyl-5-morpholino-2,4-dioxo-pyrimidine-1-carboxamide] stands 880 nM.
The same measure, in the same setting: under `CCCCCCNC(=O)n1cc(N2CCN(C)CC2)c(=O)[nH]c1=O` [Example 13, N-hexyl-5-(4-methylpiperazin-1-yl)-2,4-dioxo-pyrimidine-1-carboxamide] stands 1400 nM.
As to `CCCCCCNC(=O)n1cc(-c2ccccc2)c(=O)[nH]c1=O` [Example 14, N-hexyl-2,4-dioxo-5-phenyl-pyrimidine-1-carboxamide], in test [2], half-maximal inhibition (IC50) required 155 nM.
In the case of `CCCCCCNC(=O)n1cc(C)c(=O)n(CC2CC2)c1=O` [Example 16, 3-(cyclopropylmethyl)-N-hexyl-5-methyl-2,4-dioxo-pyrimidine-1-carboxamide], the IC50 in test [1] was found to be 40 nM.
`CCCCCCNC(=O)n1cc(-c2ccc(F)cc2)c(=O)[nH]c1=O` [Example 18, 5-(4-fluorophenyl)-N-hexyl-2,4-dioxo-pyrimidine-1-carboxamide]: the inhibition at 1 µM in test [2] (setting [3]) is 74%.
As to `CCCCCCNC(=O)n1cc(-c2ccc(OC)cc2)c(=O)[nH]c1=O` [Example 19, N-hexyl-5-(4-methoxyphenyl)-2,4-dioxo-pyrimidine-1-carboxamide], in test [2] (setting [3]), the inhibition at 1 µM was found to be 52%.
Turning to `CCCCCCNC(=O)n1cc(-c2ccc(C)cc2)c(=O)[nH]c1=O` [Example 20, N-hexyl-2,4-dioxo-5-(p-tolyl)pyrimidine-1-carboxamide], in test [2] (setting [3]), the inhibition at 1 µM was 54%.
Still for that read-out and setting: under `CCCCCCNC(=O)n1cc(-c2ccc(C(F)(F)F)cc2)c(=O)[nH]c1=O` [Example 21, N-hexyl-2,4-dioxo-5-[4-(trifluoromethyl)phenyl]pyrimidine-1-carboxamide] stands 86%; under `CCCCCCNC(=O)n1cc(-c2ccc3ccccc3c2)c(=O)[nH]c1=O` [Example 22, N-Hexyl-5-(2-naphthyl)-2,4-dioxo-pyrimidine-1-carboxamide], 64%.
The molecule `CCCCCCNC(=O)n1cc(Br)c(=O)n(C(=O)OC)c1=O` [Example 23, Methyl 5-bromo-3-(hexylcarbamoyl)-2,6-dioxo-pyrimidine-1-carboxylate] showed an IC50 in test [2] of 270 nM.
Still for that read-out and setting: as for `CCCCCCNC(=O)n1cc(Br)c(=O)n(C(=O)OCC(C)C)c1=O` [Example 24, Isobutyl 5-bromo-3-(hexylcarbamoyl)-2,6-dioxo-pyrimidine-1-carboxylate], the figure is 14 nM.
Take `CCCCCCNC(=O)n1cc(Br)c(=O)n(C)c1=O` [Example 25, 5-Bromo-N-hexyl-3-methyl-2,4-dioxo-pyrimidine-1-carboxamide]: the inhibition at 1 µM in test [2] (setting [3]) came to 96%.
On to `CCCCCCNC(=O)n1cc(-c2ccccc2)c(=O)n(C(=O)OCC(C)C)c1=O` [Example 26, Isobutyl 3-(hexylcarbamoyl)-2,6-dioxo-5-phenyl-pyrimidine-1-carboxylate], for which the inhibition at 1 µM in test [2] (setting [3]) is 100%.
As for `CCCCCCNC(=O)n1cc(Cl)c(=O)n(C(=O)OCC(C)C)c1=O` [Example 30, Isobutyl 5-chloro-3-(hexylcarbamoyl)-2,6-dioxo-pyrimidine-1-carboxylate], the inhibition at 1 µM in test [2] (setting [3]) worked out at 100%.
Still for that read-out and setting: under `CCCCCCNC(=O)n1cc(-c2cccnc2)c(=O)[nH]c1=O` [Example 31, N-hexyl-2,4-dioxo-5-(3-pyridyl)pyrimidine-1-carboxamide] stands 99%.
Turning to `CCCCCCCCNC(=O)n1cc(C(F)(F)F)c(=O)[nH]c1=O` [Example 32, N-octyl-2,4-dioxo-5-(trifluoromethyl)pyrimidine-1-carboxamide], in test [1], the IC50 stood at 7 nM.
On to `O=C(NCCCCCc1ccccc1)n1ccc(=O)[nH]c1=O` [Example 33, 2,4-dioxo-N-(5-phenylpentyl)pyrimidine-1-carboxamide], for which the inhibition at 1 µM in test [2] (setting [3]) was determined as 100%.
Turning to `O=C(NCCCCCc1ccc(F)cc1)n1ccc(=O)[nH]c1=O` [Example 34, N-[5-(4-fluorophenyl)pentyl]-2,4-dioxo-pyrimidine-1-carboxamide], in test [2] (at 0.5 μM, read-out: hAC percent inhibition), the inhibition at 0.5 µM was found to be 99%.

The term inhibition denotes the share of the control response that was lost under treatment. For orientation: IC50 means the concentration that gives 50% inhibition. A high value points to lower potency.
